# Experimental data taken from the supplement of paper PMC10307832.
# Legend:
# Assay in all cases: relative viability (nuclei count vs DMSO), 5 days (fraction); higher = more cells survive
# [1] = compound: CC1=NN=C(O1)C2=NN=C(C=C2)N3CCC(CC3)OC4=C(C=CC(=C4)F)Cl + Cc1nc(Nc2ncc(C(=O)Nc3c(C)cccc3Cl)s2)cc(N2CCN(CCO)CC2)n1 [Dasatinib] (partner 0.075 µM)
# Procedure, shortened: (§1)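 After 5 days of treatment, lung cancer cells in 1536-well plates were fixed and stained in a single step (final 0.05% Triton X-100, 1% formaldehyde, 1 ug/ml Hoechst) and their nuclei counted on 4× images. Treatment had been applied by pin tool the day after seeding as one drug alone or as a fixed anchor-drug dose with five library-drug doses (not always all listed) in √10 steps. Relative viability is the nuclei count of treated wells divided by that of vehicle wells, and values are medians of duplicate plates.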
# [2] = compound: CC1=NN=C(O1)C2=NN=C(C=C2)N3CCC(CC3)OC4=C(C=CC(=C4)F)Cl + CCNC(=O)c1noc(-c2cc(C(C)C)c(O)cc2O)c1-c1ccc(CN2CCOCC2)cc1 [Luminespib] (partner 0.01 µM)
# Procedure, shortened: as §1
# Tosedostat + Decitabine = compound: CC(C)C[C@@H](C(=O)N[C@H](C(=O)OC1CCCC1)c1ccccc1)[C@H](O)C(=O)NO [Tosedostat] + Nc1ncn([C@H]2C[C@H](O)[C@@H](CO)O2)c(=O)n1 [Decitabine] (partner 2 µM)
# Procedure, shortened: as §1
# Tosedostat + Bortezomib = compound: CC(C)C[C@@H](C(=O)N[C@H](C(=O)OC1CCCC1)c1ccccc1)[C@H](O)C(=O)NO [Tosedostat] + CC(C)C[C@H](NC(=O)[C@H](Cc1ccccc1)NC(=O)c1cnccn1)B(O)O [Bortezomib] (partner 0.002 µM)
# Procedure, shortened: as §1
Cell Line,relative viability ([1]; first compound 0.253 µM),relative viability ([1]; first compound 0.8 µM),relative viability ([1]; first compound 2.53 µM),relative viability ([1]; first compound 8 µM),relative viability ([2]; first compound 0.253 µM),relative viability ([2]; first compound 0.8 µM),relative viability ([2]; first compound 2.53 µM),relative viability ([2]; first compound 8 µM),relative viability (Tosedostat + Decitabine; first compound 0.02 µM),relative viability (Tosedostat + Decitabine; first compound 0.06325 µM),relative viability (Tosedostat + Decitabine; first compound 0.2 µM),relative viability (Tosedostat + Decitabine; first compound 0.6325 µM),relative viability (Tosedostat + Decitabine; first compound 2 µM),relative viability (Tosedostat + Bortezomib; first compound 0.02 µM),relative viability (Tosedostat + Bortezomib; first compound 0.06325 µM),relative viability (Tosedostat + Bortezomib; first compound 0.2 µM),relative viability (Tosedostat + Bortezomib; first compound 0.6325 µM),relative viability (Tosedostat + Bortezomib; first compound 2 µM)
NCI-H1395,0.448,0.405,0.401,0.427,0.431,0.725,0.678,0.82,0.888,0.689,0.715,0.624,0.622,,,,,
NCI-H1563,0.465,0.48,0.55,0.452,0.488,0.52,0.519,0.532,,,,,,0.924,0.818,0.943,0.948,0.8
NCI-H1623,0.522,0.492,0.498,0.441,0.465,0.52,0.486,0.433,,,,,,,,,,
NCI-H1648,,,,,,,,,0.389,0.426,0.51,0.421,0.399,,,,,
NCI-H1703,,,,,,,,,,,,,,0.447,0.297,0.235,0.221,0.301
NCI-H1793,0.378,0.342,0.448,0.371,0.132,0.348,0.166,0.405,0.429,0.435,0.407,0.222,0.346,,,,,
NCI-H1944,0.212,0.23,0.224,0.264,0.45,0.417,0.483,0.402,0.456,0.431,0.458,0.416,0.39,,,,,
NCI-H2170,0.351,0.332,0.374,0.316,0.468,0.475,0.353,0.311,0.454,0.499,0.491,0.421,0.453,,,,,
NCI-H2228,0.555,0.412,0.537,0.405,0.164,0.15,0.132,0.131,,,,,,1.33,0.948,0.827,0.896,0.744
NCI-H2342,0.286,0.293,0.325,0.274,0.501,0.528,0.484,0.476,0.713,0.688,0.718,0.692,0.689,,,,,
SK-MES-1,0.359,0.384,0.419,0.42,0.726,0.725,0.631,0.547,0.356,0.372,0.325,0.273,0.346,,,,,
SW 900,,,0.642,0.542,,,0.175,0.175,0.463,0.499,0.405,0.359,0.415,,,,,
